Laboratory results: publication PMC5607274, “An iterative compound screening contest method for identifying target protein inhibitors using the tyrosine-protein kinase Yes” (Scientific Reports, 2017)

target: T1, human recombinant Yes [a.a. 2–543 (end)] (Homo sapiens, UniProt P07947); test: ADP-Glo kinase assay, inhibition rates of Yes phosphorylation activity (first and second screening); format: biochemical; details: first screening; mean of n = 4 wells; 10 μmol L−1 compound
T1 construct: human recombinant Yes [a.a; 2–543 (end)]; purchased BPS Bioscience 40488
T1 sequence (P07947 2-543): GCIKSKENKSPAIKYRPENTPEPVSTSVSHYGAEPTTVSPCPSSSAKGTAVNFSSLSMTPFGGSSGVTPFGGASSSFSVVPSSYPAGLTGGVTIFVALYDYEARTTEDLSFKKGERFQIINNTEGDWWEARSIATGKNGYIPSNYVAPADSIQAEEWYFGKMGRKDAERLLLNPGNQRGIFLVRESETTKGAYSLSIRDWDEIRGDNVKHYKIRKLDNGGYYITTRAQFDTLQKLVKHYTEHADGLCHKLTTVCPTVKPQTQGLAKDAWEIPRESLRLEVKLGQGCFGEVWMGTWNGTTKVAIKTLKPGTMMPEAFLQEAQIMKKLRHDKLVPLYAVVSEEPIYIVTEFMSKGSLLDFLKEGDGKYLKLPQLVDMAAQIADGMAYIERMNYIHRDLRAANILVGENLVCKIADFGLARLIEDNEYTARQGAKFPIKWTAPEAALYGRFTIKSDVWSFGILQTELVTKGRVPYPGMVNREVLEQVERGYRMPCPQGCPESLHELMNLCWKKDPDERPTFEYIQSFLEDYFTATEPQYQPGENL
Method in brief: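 ADP-Glo luminescence measured inhibition of human recombinant Yes (a.a. 2–543) phosphorylation activity. In the first screen, each compound ran in 4 wells and inhibition rates were averaged. The second screen retested hits as compounds dissolved from fresh powder.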

SMILES	First screening IR (inhibition rate) [%]
O=C(NCCc1c[nH]c2cc(F)ccc12)c1cnc(-c2ccccc2)nc1 [Compound Z960870544]	43
Cc1c(C(=O)Nc2ccc3c(ccn3CCN3CCOCC3)c2)nnn1-c1ccc(F)cc1 [Compound Z961847812]	-11
COc1ccc(C)cc1N1CC(C(=O)Nc2ccc3c(ccn3CCN3CCOCC3)c2)CC1=O (stereo not shown) [Compound Z961849222]	23
CCOC(=O)Cn1ccc2cc(NC(=O)c3sc(-c4ccccc4)nc3C)ccc21 [Compound Z968524204]	2
O=S1(=O)CCC(S(=O)(=O)NC2CCCCCC2)CC1 [Compound Z968739862]	50
Cc1ccccc1CN(C)S(=O)(=O)C1CCS(=O)(=O)CC1 [Compound Z968740596]	-2
Cc1ccnn1-c1ccc(C(=O)N2CCC(N3CCCC3C(N)=O)CC2)cc1 (stereo not shown) [Compound Z968814168]	-8
C(=N/Nc1nc2ccccc2nc1-c1ccccc1)/c1ccc2nccnc2c1 [Compound Z969651240]	11
O=C(/C=C/c1cccnc1)c1ccc(N2CCOC2=O)cc1 [Compound Z970272914]	16
CC(C)C(C)NC(=O)C1CCN(Cc2ccc(C#N)cc2)CC1 (stereo not shown) [Compound Z975048678]	5
Cc1cc(CN2CCSCC2)ccc1NC(=O)c1ccnc(N(C)C)c1 [Compound Z978895402]	0
CC(C)NC(=O)Nc1ccc(C(=O)N(CCC#N)Cc2ccco2)cc1 [Compound Z979061162]	7
Cn1c(CSc2n[nH]c(-c3ccccc3F)n2)nc2ccccc21 [Compound Z982182198]	4
CS(=O)(=O)Cc1ccc(CNc2ccnc3c(F)ccc(F)c23)cc1 [Compound Z983418922]	-17
O=C(Nc1cccc(OCCn2cccn2)c1)NC1CCSCC1 [Compound Z987964770]	8
Cc1cccc(NCC2CCN(c3ncnc4c3cnn4C)C2)n1 (stereo not shown) [Compound Z990436502]	6
Cc1ccnc(NCC2CCN(Cc3cccc(C(N)=O)c3)C2)c1 (stereo not shown) [Compound Z990550860]	-3
Cc1cccc(NCC2CCN(Cc3cccc(C(N)=O)c3)C2)n1 (stereo not shown) [Compound Z990551490]	2
N#CCCn1ncc2c(NCc3ccc4c(c3)OCCO4)ncnc21 [Compound Z990838348]	2
OCCn1ncc2c(NCCc3nnc4ccccn34)ncnc21 [Compound Z990848218]	-6
N#CCCn1ncc2c(N3CCN(Cc4ccco4)CC3)ncnc21 [Compound Z990852254]	3
CC1CN(c2ncnc3c2cnn3CCC#N)CCO1 (stereo not shown) [Compound Z990855820]	4

SMILES	First screening IR (inhibition rate) [%]
N#CCCn1ncc2c(NC3CCCC(C(F)(F)F)C3)ncnc21 (stereo not shown) [Compound Z990858522]	-12
CC(C)C(=O)N1CCC(Nc2ncnc3c2cnn3CCC#N)CC1 [Compound Z990868196]	-8
CC(CNc1ncnc2c1cnn2CCO)Cn1cccn1 (stereo not shown) [Compound Z990883644]	11
COc1c(CNCc2ccc(C(=O)N(C)C)cc2)c(C)nn1C [Compound Z991036884]	27
O=C(NCc1nc(-c2ccccc2)n[nH]1)c1ccc(-c2ccccc2)cc1 [Compound Z991809296]	-14
O=C(Cc1ccc(OC(F)F)cc1)N1CCC(c2nc(-c3ccccc3)n[nH]2)CC1 [Compound Z991836758]	-3
Cc1cccc(C(C)C)c1NC(=O)CN1CCCCC1Cc1ccccc1 (stereo not shown) [Compound Z991917352]	-4
CCN1CCN(Cc2ccc(NC(=O)C3CCCN3C(=O)c3ccc4ccccc4c3O)cc2)CC1 (stereo not shown) [Compound Z992207680]	51
Cc1nn(CC(C)C)c2sc(C(=O)N3c4ccccc4C[C@H]3C(N)=O)cc12 [Compound Z996487836]	1
O=C(c1cccn1Cc1ccncc1)N1CCOC(c2ccc(F)cc2)C1 (stereo not shown) [Compound Z998371530]	13
Cc1nc(NC(=O)c2cccc(NC(N)=O)c2)sc1SCC#N [Compound Z1000171966]	-2
Cc1ccnc(NC(=O)C2CCN(c3ccc(C#N)cc3F)CC2)c1 [Compound Z1002220042]	1
COc1ccc(-c2c(C#N)c(=O)[nH]c3c2c(C)nn3-c2ccccc2)cc1OC [Compound Z1007027518]	-1
Cc1cc(C)c2c(c1)C(O)(CC(=O)c1ccccc1)C(=O)N2 (stereo not shown) [Compound Z1013750782]	0
FC(F)(F)c1ccnc(Nc2ccc(NC3CCOCC3)cc2)n1 [Compound Z1021076320]	13
O=C(O)c1cnc(/C=C/c2cccnc2)s1 [Compound Z1021595256]	0
CNC(=O)c1cnc(/C=C/c2cccnc2)s1 [Compound Z1029489284]	5
CCN1CCN(S(=O)(=O)C2CS(=O)(=O)c3ccccc32)CC1 (stereo not shown) [Compound Z1031094372]	8
CC1(C)CN(S(=O)(=O)C2CS(=O)(=O)c3ccccc32)CCO1 (stereo not shown) [Compound Z1031114832]	-4
CC(C)CNC(=O)c1c(N)n(CCc2ccccc2)c2nc3ccccc3nc12 [Compound Z1033301058]	-2
CC1CN(CC2CCN(CC(=O)Nc3cc(Cl)ccc3Cl)CC2)CC(C)O1 (stereo not shown) [Compound Z1033314424]	2
Cc1nc(-c2ccc(Br)cc2)nc(NCCO)c1C [Compound Z1037335626]	13

SMILES	First screening IR (inhibition rate) [%]
CCN(CC)C(=O)c1ccc(NS(=O)(=O)c2cc3c(cc2Cl)NC(=O)C3)cc1 [Compound Z1037385644]	-4
Cc1ccc(C(=O)Nc2cc(C(=O)N3CCCCC3)ccc2Cl)o1 [Compound Z1037939812]	3
NC(=O)N1CCC(C(=O)N2CCCC2CC2CC3CCC2C3)CC1 (stereo not shown) [Compound Z1038829842]	2
N#Cc1cnc(N2CCN(S(=O)(=O)c3cc(Cl)ccc3Cl)CC2)c(Cl)c1 [Compound Z1039059796]	0
N#Cc1cnc(NCCC(=O)N2CCc3sccc3C2)c(Cl)c1 [Compound Z1039090738]	2
Cc1oc(-c2ccsc2)nc1CC(=O)Nc1cc(C(N)=O)n(C)c1 [Compound Z1039455578]	2
Cn1ccc2c(NC(=O)NCc3ccnc(N4CCCC4)c3)cccc21 [Compound Z1040576806]	-8
Cc1nc2n(n1)CC(NCc1cn[nH]c1-c1ccc(C)o1)CC2 (stereo not shown) [Compound Z1051950052]	20
CN(C)C(=O)Cn1cc(NC(=O)c2ccc3cc[nH]c3c2)cn1 [Compound Z1067269008]	-5
Cn1cc(NC(=O)C2(c3cccc(C(F)(F)F)c3)CC2)cn1 [Compound Z1068296272]	25
c1cc(-c2nc3c(c(N4CCCC(N5CCCC5)C4)n2)CCC3)ccn1 (stereo not shown) [Compound Z1070397714]	56
Cc1cccc(-c2nc(C(C)C)no2)c1NC(=O)CCc1ccccc1 [Compound Z1082320758]	4
CCN(CC)S(=O)(=O)c1ccc(N2CCC(NC(C)C)CC2)c([N+](=O)[O-])c1 [Compound Z1082766798]	8
CCN(c1cccnc1)S(=O)(=O)c1cc(S(C)(=O)=O)ccc1Cl [Compound Z1082836308]	-7
CN(C1CCCCC1)S(=O)(=O)N1CCS(=O)(=O)CC1 [Compound Z1082836720]	-4
Cc1cccc(=O)n1CCCCNc1cnc2ccccc2n1 [Compound Z1084012684]	10
CCOCCCn1c(NC(=O)c2ccc3c(c2)CCN3C(C)=O)nc2ccccc21 [Compound Z1090594860]	-9
c1cncc(-c2nc(SCc3nc4ccccc4o3)n[nH]2)c1 [Compound Z1095448120]	-2
CC1CCCN(Cc2ccc(CNCC3CNc4ccnn4C3)cc2)C1 (stereo not shown) [Compound Z1097879141]	-4
Cc1nc(-c2cc(C(=O)N3CCCC(n4ccnc4)C3)co2)cs1 (stereo not shown) [Compound Z1102775620]	-5
CCN(CCC#N)S(=O)(=O)c1cccc(S(C)(=O)=O)c1 [Compound Z1116704440]	-6
COCCN(CCC#N)S(=O)(=O)c1ccccc1S(C)(=O)=O [Compound Z1116705979]	42

same assay, conditions: second screening, dissolved from fresh powder; n = 4; 10 μmol L−1 compound

SMILES	Second screening IR (inhibition rate) [%]
COc1c(CNCc2ccc(C(=O)N(C)C)cc2)c(C)nn1C [Compound Z991036884]	-29
